From paper PMC10377753, “Pharmacokinetic and pharmacodynamic properties of polymyxin B in Escherichia coli and Klebsiella pneumoniae murine infection models” (Journal of Antimicrobial Chemotherapy, 2023)
Structures can show the parent of a compound that is named as a salt. Bridge positions count the residues as written; N and C are the ends. Square brackets hold non-standard residues; d marks the D form. Peptide text beside a SMILES is read from it. * marks the point of attachment. X1 = CC[C@H](C)CCCCC(=O)*; Dab = NCC[C@H](N)C(=O)O

What was measured:
[1] = Tolerability of subcutaneous dosing in infected neutropenic mice; assay type: in vivo
Procedure: Dose-fractionation studies were performed for E. coli ATCC 25922 and K. pneumoniae 104 in the thigh infection model. Two hours after infection, treatment with polymyxin B was administered subcutaneously over 24 h at the following dosing regimens: 4–128 mg/kg q6h [total daily dose (TDD) 16–512 mg/kg]; 8–256 mg/kg q12h (TDD 16–512 mg/kg); 256–512 mg/kg q24h (TDD 256–512 mg/kg).
For dose–response studies, a 6 hourly dosing regimen of 1–32 mg/kg was studied in the thigh infection model. Mice were infected with E. coli […], 15, 51 or 71 or K. pneumoniae ATCC 43816, 17, 58 or 74.
Animals were humanely euthanized 24 h (t = 24 h) after the first dose, unless the welfare of the animals necessitated earlier termination, following animal welfare regulations. Excised thighs were transferred to a pre-cooled 14 mL polypropylene tube containing 2 mL of PBS and were homogenized using a T25 ULTRA-TURRAX (IKA-Werke GmbH & Co, Staufen, Germany). A 10-fold dilution series was prepared and 3 × 10 μL was plated per dilution. The following day, colonies were counted and the number of cfu per thigh was calculated.

[2] = Non-specific binding to ultrafiltration filter; assay type: physicochemical; conditions: LC-MS/MS
Procedure: The binding of polymyxin B to plasma proteins was determined via ultrafiltration. Polymyxins have a tendency to non-specifically bind to different kinds of material, including ultrafiltration filters. Thus, to correct for polymyxin B loss on the filter, an experiment was performed in which ultrafiltrated (UF) phosphate buffer was spiked with multiple polymyxin B concentrations (ranging from 0.75 to 8 mg/L) and subsequently concentrations were measured. […] Using this relationship, the non-specific binding (NSB) for each measured polymyxin B UF concentration was calculated. Correction for the measured polymyxin B UF concentration using this NSB value was according to the following formula: polymyxin B UF Corrected Concentration = Measured polymyxin B UF Concentration × (1−NSB).
Polymyxin B concentrations in plasma, BAL and ultrafiltrates were determined by a validated LC-MS/MS method,[18] with a lower limit of quantification (LOQ) of 0.2 mg/L for plasma and 0.05 mg/L for BAL fluid and ultrafiltrates. […] The residues were dissolved in 0.1 mL of 0.1% formic acid in water and analysed by LC-MS/MS. […] Polymyxin B was analysed on an XBridge C18 column (5 µm, 2.1 × 150 mm; Waters). […] Calibration curves of polymyxin B ranged from 0.1 to 10 mg/L for plasma and ultrafiltrates, and were quantified with a quadratic regression mode. […]

[3] = test system: four E. coli and four K. pneumoniae strains; assay: Dose-response study, thigh infection model, summary over all eight isolates; assay type: in vivo, Escherichia coli, Klebsiella pneumoniae; conditions: q6h dosing, mouse thigh infection
Procedure: Experiments were carried out in the Erasmus Laboratory Animal Science Centre in Rotterdam, The Netherlands in accordance with the EU Animal Directive 2010/63/EU 2010 directive[14] (licence number AVD101002016702) as described before,[15] with approval of the institutional Animal Welfare Body. Outbred female CD-1 mice obtained from Charles River Germany, weighing 20–25 g, 7–8 weeks old, were used in the experiments. The mice were housed under standard conditions with drink and feed supplied ad libitum.
Mice were rendered neutropenic by intraperitoneal injection of cyclophosphamide of 150 and 100 mg/kg, 4 days and 1 day before infection, respectively. […]
Animals were humanely euthanized 24 h (t = 24 h) after the first dose, unless the welfare of the animals necessitated earlier termination, following animal welfare regulations. […] The following day, colonies were counted and the number of cfu per thigh was calculated.
The drug effect was determined by the difference between the log10 cfu values at t = 0 h (mean value of two mice) and t = 24 h (value of individual mice) expressed as Δlog10 cfu. […]
A sigmoid maximum effect (Emax) model was fitted to the PK/PD index versus Δlog10 cfu data by non-linear regression, and static or a 1 log or 2 log kill effect were determined using GraphPad Prism 8.0 (GraphPad, Inc., San Diego, CA, USA). […]

CC[C@H](C)CCCCC(=O)N[C@@H](CCN)C(=O)N[C@H](C(=O)N[C@@H](CCN)C(=O)N[C@H]1CCNC(=O)[C@H]([C@@H](C)O)NC(=O)[C@H](CCN)NC(=O)[C@H](CCN)NC(=O)[C@H](CC(C)C)NC(=O)[C@@H](Cc2ccccc2)NC(=O)[C@H](CCN)NC1=O)[C@@H](C)O [polymyxin B, Polymyxin B sulphate salt] (X1-[Dab]T[Dab][Dab][Dab][dF]L[Dab][Dab]T; lactam 4-C)
Mice in which the last (fourth) administration was not tolerated ([1]; 32 mg/kg q6h (TDD 128 mg/kg) s.c.): 2/4 | Tolerability ([1]; doses >64 mg/kg s.c., dose fractionation studies, neutropenic infected mice): not tolerated | Non-specific binding (NSB) ([2]; phosphate buffer spiked at 0.75 mg/L): 77% ± 8.3% | Non-specific binding (NSB) ([2]; phosphate buffer spiked at 8 mg/L): 20% ± 0.6% | Isolates in which a 1 log kill effect was observed [3]: 3/8 | Isolates in which a 2 log kill effect was observed [3]: 1/8
